Measured values reported in ChEMBL document CHEMBL1201862, “PubChem BioAssay data set” (2004).
Active and inactive are the calls of the source.

Columns and labels:
[1] = growth suppression of PTEN-null colon cells, dose response, cell-based, HCT116 PTEN knockout (AID 1047); format: functional;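 note: HCT116 colon tumor cells with PTEN knocked out; cells exposed to compound for 60 hours before readout; potency for loss of cell viability measured by luminescence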
Cytochrome P450 2D6 = Cytochrome P450 2D6 (Homo sapiens, UniProt P10635);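 note: CYP2D6 member of a cytochrome P450 panel assay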
Sequence of Cytochrome P450 2D6 (P10635 whole entry): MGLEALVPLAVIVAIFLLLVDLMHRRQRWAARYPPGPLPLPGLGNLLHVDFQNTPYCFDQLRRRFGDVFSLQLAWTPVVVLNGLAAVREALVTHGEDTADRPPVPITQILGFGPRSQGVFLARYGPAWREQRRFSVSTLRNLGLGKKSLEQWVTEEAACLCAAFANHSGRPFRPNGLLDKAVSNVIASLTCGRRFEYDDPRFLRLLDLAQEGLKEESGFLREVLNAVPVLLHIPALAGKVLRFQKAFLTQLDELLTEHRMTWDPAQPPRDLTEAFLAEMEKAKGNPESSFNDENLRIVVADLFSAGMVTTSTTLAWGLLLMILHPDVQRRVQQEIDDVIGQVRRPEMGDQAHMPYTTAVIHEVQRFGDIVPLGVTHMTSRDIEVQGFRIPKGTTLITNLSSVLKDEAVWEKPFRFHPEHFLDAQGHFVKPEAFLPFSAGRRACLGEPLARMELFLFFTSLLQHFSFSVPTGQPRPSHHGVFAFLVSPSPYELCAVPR

[2] = growth suppression of beta-catenin-knockout colon cells, dose response, cell-based, HCT116, human colon tumor (AID 1045); format: functional;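 note: HCT116 colon tumor cells with beta catenin knocked out; cells exposed to compound for 60 hours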
Cytochrome P450 2C19 = Cytochrome P450 2C19 (Homo sapiens, UniProt P33261); test: Cytochrome panel assay with activity outcomes. Panel member name: p450-cyp2c19 Compounds with AC50 equal or less than 10 uM are considered active; format: functional; conditions: read-out: AC50
Sequence of Cytochrome P450 2C19 (P33261 whole entry): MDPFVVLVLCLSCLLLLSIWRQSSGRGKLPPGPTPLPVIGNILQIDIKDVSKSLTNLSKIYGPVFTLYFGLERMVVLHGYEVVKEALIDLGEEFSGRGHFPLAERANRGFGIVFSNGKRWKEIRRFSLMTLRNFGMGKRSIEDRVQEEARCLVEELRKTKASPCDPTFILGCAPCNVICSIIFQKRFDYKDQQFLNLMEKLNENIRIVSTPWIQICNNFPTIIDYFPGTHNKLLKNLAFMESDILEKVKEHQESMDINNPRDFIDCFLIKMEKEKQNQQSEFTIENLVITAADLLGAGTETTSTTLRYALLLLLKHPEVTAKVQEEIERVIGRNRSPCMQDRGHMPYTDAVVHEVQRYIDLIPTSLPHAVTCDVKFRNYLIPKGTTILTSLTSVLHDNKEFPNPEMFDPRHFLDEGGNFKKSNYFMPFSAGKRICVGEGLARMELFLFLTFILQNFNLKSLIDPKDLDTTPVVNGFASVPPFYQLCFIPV

[3] = cytotoxicity in HPDE-C7 cells, cell-based, fluorescence, HTS (AID 430); format: functional; conditions: Homo sapiens
[4] = cytotoxicity in KRAS-transformed pancreatic duct cells, primary screen, cell-based, fluorescence, HTS (AID 431); format: functional; conditions: Homo sapiens;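 note: cell line used: HPDE-C7K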
[5] = Vero E6 cell cytotoxicity, dose response, cytotoxicity control for non-replicating M. tuberculosis project, secondary assay (AID 492998); format: functional, VeroE6; conditions: Vero C1008
cells = format: functional
[6] = THP-1 cell cytotoxicity, dose response, cytotoxicity control for non-replicating M. tuberculosis project (AID 489025); format: functional
Estrogen receptor beta = Estrogen receptor beta (Homo sapiens, UniProt Q92731);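 note: recombinant ER-beta bound to coactivator SRC1 peptide in presence of estradiol agonist; inhibitors block coactivator peptide binding and lower the FRET signal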
Sequence of Estrogen receptor beta (Q92731 whole entry): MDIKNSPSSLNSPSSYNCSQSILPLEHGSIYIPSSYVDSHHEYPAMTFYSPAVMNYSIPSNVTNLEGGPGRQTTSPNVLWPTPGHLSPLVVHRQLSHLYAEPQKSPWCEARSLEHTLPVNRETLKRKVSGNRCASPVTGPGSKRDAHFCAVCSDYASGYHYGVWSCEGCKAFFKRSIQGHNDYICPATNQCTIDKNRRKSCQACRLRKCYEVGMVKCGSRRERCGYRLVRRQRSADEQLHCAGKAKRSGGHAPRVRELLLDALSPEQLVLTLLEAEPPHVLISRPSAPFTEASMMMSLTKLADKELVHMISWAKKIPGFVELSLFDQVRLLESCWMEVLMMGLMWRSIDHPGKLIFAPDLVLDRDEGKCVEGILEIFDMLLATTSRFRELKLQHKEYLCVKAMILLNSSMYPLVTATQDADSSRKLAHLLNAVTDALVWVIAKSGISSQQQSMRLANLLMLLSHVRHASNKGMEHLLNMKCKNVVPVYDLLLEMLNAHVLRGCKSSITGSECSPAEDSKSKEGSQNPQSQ

Coagulation factor XII = target: T1, Coagulation factor XII (Homo sapiens, UniProt P00748); format: functional;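 note: activated factor XIIa alpha cleaving a fluorogenic AMC peptide substrate; inhibitor potency from loss of enzyme activity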
T1 sequence (P00748 whole entry): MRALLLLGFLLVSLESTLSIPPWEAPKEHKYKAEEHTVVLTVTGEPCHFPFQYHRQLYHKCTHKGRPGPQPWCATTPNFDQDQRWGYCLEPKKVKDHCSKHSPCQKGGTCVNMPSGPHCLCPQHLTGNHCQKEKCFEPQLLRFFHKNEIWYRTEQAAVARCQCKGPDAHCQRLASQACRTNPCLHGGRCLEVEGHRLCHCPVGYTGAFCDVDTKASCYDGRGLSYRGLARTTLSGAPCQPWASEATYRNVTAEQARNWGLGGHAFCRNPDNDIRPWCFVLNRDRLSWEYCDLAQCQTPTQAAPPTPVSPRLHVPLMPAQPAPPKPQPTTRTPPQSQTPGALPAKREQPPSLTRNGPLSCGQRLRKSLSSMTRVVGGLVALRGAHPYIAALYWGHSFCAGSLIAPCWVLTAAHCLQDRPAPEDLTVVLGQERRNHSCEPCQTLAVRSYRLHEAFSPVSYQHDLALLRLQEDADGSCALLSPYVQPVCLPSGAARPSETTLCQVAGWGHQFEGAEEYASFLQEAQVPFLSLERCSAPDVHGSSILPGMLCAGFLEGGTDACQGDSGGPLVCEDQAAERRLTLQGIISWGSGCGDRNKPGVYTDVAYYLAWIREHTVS

[7] = target: T2, Short transient receptor potential channel 4 (Mus musculus, UniProt Q9QUQ5); test: mouse TRPC4 channel inhibitors, dose response, cell-based, HEK293 TRPC4/mu-opioid, Fluo-4 calcium (AID 434942); format: functional;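 note: potency of inhibitors blocking the TRPC4 calcium response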
T2 sequence (Q9QUQ5 whole entry): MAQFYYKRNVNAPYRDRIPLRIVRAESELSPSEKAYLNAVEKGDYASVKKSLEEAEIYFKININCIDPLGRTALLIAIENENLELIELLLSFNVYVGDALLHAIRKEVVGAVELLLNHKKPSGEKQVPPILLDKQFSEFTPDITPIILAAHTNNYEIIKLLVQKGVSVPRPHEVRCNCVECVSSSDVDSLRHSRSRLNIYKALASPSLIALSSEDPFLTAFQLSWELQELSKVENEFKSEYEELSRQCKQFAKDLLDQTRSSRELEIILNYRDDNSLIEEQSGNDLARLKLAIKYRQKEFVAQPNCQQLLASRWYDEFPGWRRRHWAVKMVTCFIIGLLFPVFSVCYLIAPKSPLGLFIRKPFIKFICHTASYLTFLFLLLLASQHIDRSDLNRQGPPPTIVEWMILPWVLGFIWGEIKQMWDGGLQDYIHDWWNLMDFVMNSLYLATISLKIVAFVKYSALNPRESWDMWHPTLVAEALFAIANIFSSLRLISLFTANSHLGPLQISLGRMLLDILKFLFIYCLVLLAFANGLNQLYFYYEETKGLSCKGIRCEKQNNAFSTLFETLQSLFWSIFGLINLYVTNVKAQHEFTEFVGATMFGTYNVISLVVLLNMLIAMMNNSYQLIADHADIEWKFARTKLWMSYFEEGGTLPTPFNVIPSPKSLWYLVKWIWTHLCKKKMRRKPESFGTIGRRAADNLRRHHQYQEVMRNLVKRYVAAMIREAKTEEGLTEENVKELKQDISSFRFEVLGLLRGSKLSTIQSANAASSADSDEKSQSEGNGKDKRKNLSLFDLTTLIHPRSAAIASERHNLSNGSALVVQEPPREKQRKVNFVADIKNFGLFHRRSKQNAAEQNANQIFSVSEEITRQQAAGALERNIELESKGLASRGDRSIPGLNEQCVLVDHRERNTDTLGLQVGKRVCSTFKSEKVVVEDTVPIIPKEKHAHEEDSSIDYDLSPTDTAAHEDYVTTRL

Streptococcus = test: Group A Streptococcus viability loss, dose response, counter-screen for streptokinase expression inhibitor project, luminescence, BacTiterGlo (AID 1915); format: functional, organism-based;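 note: potency for reduction of bacterial viability or growth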
BJ [8] = test: cells; format: functional, cell-based; conditions: Homo sapiens
[9] = inhibitors of intracellular T. cruzi replication, confirmation, NIH3T3 host cells, beta-gal luminescence (AID 2044); format: functional, cell-based;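 note: intracellular parasites grown in NIH/3T3 mouse fibroblasts as host cells; luminescent beta-galactosidase reporter signal from transgenic T. cruzi replicating inside host cells; inhibitors lower the luminescence signal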
[10] = Luminescence-based dose response cell-based high throughput screening assay for cytotoxic compounds using the IEC-6 intestinal epithelial cell line. [Related pubchem assays: 1858 (Summary AID.), 1825 (Counterscreen.), 1907 (Confirmation screen.)]; format: functional
BJ [11] = test: cytotoxicity toward BJ-TERT fibroblasts, dose response, cell-based, RAS-independent, luminescence (AID 1933); format: functional; conditions: Homo sapiens
Nonstructural protein 1 = Nonstructural protein 1 (Influenza A virus, UniProt Q194T2); format: functional, Influenza A virus (A/California/07/2009(H1N1))
Sequence of Nonstructural protein 1 (Q194T2 whole entry): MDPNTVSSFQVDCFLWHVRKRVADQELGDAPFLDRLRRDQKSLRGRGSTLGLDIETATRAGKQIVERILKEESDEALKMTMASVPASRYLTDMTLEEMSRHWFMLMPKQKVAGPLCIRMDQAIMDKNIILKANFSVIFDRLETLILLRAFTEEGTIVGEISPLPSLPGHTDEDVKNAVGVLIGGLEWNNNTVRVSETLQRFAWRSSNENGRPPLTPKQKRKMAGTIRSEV

[12] = tested on: Streptococcus sp. 'group A'; test: growth inhibition of control SK(-) GAS strain, dose response, counter-screen for streptokinase expression inhibitor project, luminescence, kanamycin, BacTiterGlo, confirmation (AID 1900); format: functional, organism-based
[13] = cytotoxicity toward NIH3T3 fibroblasts, dose response, counter-screen, cell-based, ATP luminescence, mouse fibroblasts (AID 2010); format: functional;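 note: cells exposed to compound for about 90 hours before reading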
BJ [14] = test: cytotoxicity toward BJ-TERT-LT-ST fibroblasts, dose response, cell-based, RAS-independent, luminescence (AID 1935); format: functional; conditions: Homo sapiens;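 note: BJ fibroblasts immortalized with TERT plus LT and ST oncogenes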
INS1 = test: beta cell apoptosis inhibitors, cytokine rescue, dose response, luminescence, retest (AID 449756); format: functional, cell-based; conditions: Rattus norvegicus;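 note: cell death triggered by IL-1 beta plus TNF-alpha plus IFN-gamma mixture; protective hits raise ATP signal compared with cytokine alone wells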
[15] = cytotoxicity in HEK-293T cells, dose response, cytotoxicity control for TCR NF-kB inhibitor project, luminescence, T-cell screen hits (AID 489026); format: functional, cell-based;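 note: cells exposed to compound about 14 hours before the viability readout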
[16] = cytotoxicity toward DRD oncogenic fibroblasts, dose response, cell-based, non-viral oncogenic, luminescence (AID 1934); format: functional; conditions: Homo sapiens

Cc1cccc(NC(S)=NC2CC3CCCC(C2)N3Cc2cccs2)c1 (stereo not drawn)
EC50 [1]: 65.3 µM (active) | AC50 (Cytochrome P450 2D6): 3.98 µM (inconclusive) | EC50 [2]: 92.3 µM (active) | AC50 (Cytochrome P450 2C19): 28.2 µM (inconclusive)

Cc1cccc(-n2c(O)nc3c(C(N)=O)nc(-c4ccccc4Cl)nc32)c1
EC50 [1]: 10.5 µM (active) | EC50 [2]: 11.2 µM (active)

O=c1n(Cc2ccc(Cl)cc2)c2sc3c(c2c2ncnn12)CCCC3
EC50 [3]: 13.3 µM (active) | EC50 [4]: 13.1 µM (active)

Cc1nn(-c2cccc(Cl)c2)c(O)c1/C=N/n1c(C)nc2ccccc2c1=O
CC50 [5]: > 20 µM (active) | IC50 (cells): 45.1 µM (active) | CC50 [6]: 28.7 µM (active)

Cc1nn2c(-c3cccc(NC(=O)CSc4nc5ccccc5o4)c3)nnc2c2ccccc12
EC50 [3]: 7.91 µM (active) | EC50 [4]: 7.73 µM (active) | IC50 (Estrogen receptor beta): > 50 µM (not active)

COC(=O)CSc1nnc(-c2sc3cc(OC)ccc3c2Cl)n1C
IC50 (Coagulation factor XII): > 50 µM (inactive) | EC50 [7]: 0.531 µM (active)

C/C(=N\NC(=O)c1ccc(Cl)c(Cl)c1)c1ccccn1
EC50 (Streptococcus): 1.84 µM (active) | EC50 (BJ [8]): 1.37 µM (active) | EC50 [9]: 0.125 µM (active) | IC50 [10]: 0.563 µM (active) | EC50 (BJ [11]): 0.38 µM (inconclusive) | IC50 (Nonstructural protein 1): 3.03 µM (active) | EC50 [12]: 0.099 µM (active) | EC50 [13]: 0.656 µM (active) | EC50 (BJ [14]): 0.674 µM (inconclusive) | AC50 (INS1): 0.278 µM (active) | IC50 [15]: > 80 µM (inactive) | EC50 [16]: 1.01 µM (active)
